For series [1], the target named is Casein kinase I isoform epsilon (Homo sapiens, UniProt P49674). In words: Inhibition of human CK1 epsilon using casein as substrate after 2 hrs in presence of [33P]-ATP by scintillation counting analysis.
Series [2] in a line: Drug metabolism in human liver microsomes. In kind it is ADME, Microsome. As to conditions: read-out: Drug metabolism.
Another series deals with CYP3A4 (Homo sapiens, UniProt P08684). In words: Drug metabolism in human liver microsomes assessed as CYP3A4-mediated drug metabolism in presence of ketoconazole. The class given is ADME. The settings on record: with ketoconazole, read-out: Drug metabolism. A general note: Microsomes from liver hold many membrane-bound enzymes, among them those of drug oxidation.
Sequence of CYP3A4 (P08684 whole entry): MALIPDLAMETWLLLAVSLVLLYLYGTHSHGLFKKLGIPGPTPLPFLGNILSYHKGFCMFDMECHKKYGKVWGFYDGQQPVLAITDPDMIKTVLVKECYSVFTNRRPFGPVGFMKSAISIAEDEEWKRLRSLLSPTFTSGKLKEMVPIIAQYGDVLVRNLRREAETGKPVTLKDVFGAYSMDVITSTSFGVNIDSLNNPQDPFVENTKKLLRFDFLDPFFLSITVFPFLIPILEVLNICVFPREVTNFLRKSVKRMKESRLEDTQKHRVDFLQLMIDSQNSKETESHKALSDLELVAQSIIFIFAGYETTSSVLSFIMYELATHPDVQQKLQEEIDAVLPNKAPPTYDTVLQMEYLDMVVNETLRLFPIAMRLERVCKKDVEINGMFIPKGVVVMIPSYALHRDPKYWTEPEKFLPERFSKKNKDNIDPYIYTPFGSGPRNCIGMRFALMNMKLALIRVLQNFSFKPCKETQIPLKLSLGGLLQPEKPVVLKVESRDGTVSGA
Series [3] has as its target T1, Cytochrome P450 2D6 (Homo sapiens, UniProt P10635). In words: Drug metabolism assessed as recombinant CYP2D6 (unknown origin)-mediated 4-(3-(pyridin-4-yl)-6-(4-(pyrrolidin-1-yl)piperidin-1-yl)imidazo[1,2-b]pyridazin-2-yl)phenol formation. As to conditions: recombinant enzyme. The class given is ADME.
For series [4], the target named is T1, Cytochrome P450 2D6. In words: Drug metabolism assessed as recombinant CYP2D6 (unknown origin)-mediated 3-(3-(pyridin-4-yl)-6-(4-(pyrrolidin-1-yl)piperidin-1-yl)imidazo[1,2-b]pyridazin-2-yl)phenol formation. As to conditions: recombinant enzyme. In kind it is ADME.
The target of series [5] is T1, Cytochrome P450 2D6. In words: Drug metabolism assessed as recombinant CYP2D6 (unknown origin)-mediated 3-(3-(pyridin-4-yl)-6-(4-(pyrrolidin-1-yl)-3,4-dihydropyridin-1(2H)-yl)imidazo[1,2-b]pyridazin-2-yl)phenol formation. In kind it is ADME. As to conditions: recombinant enzyme.

What is called IC50 is the midpoint of a concentration-inhibition curve.

Molecules are shown by their SMILES.

T1 sequence (P10635 whole entry): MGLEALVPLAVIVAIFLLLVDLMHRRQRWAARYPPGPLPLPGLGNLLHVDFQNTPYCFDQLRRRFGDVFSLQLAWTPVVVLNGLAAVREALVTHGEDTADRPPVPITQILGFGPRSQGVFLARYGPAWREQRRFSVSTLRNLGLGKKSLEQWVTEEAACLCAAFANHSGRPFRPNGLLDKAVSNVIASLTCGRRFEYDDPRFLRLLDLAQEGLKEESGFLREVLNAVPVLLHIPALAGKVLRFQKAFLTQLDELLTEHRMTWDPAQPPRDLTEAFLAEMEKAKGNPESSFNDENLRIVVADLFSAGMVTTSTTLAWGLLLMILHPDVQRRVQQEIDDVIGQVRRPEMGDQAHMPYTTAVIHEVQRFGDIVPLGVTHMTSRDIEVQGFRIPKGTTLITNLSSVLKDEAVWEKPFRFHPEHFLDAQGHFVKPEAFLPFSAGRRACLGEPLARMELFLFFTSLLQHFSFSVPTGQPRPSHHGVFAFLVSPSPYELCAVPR
Sequence of Casein kinase I isoform epsilon (P49674 whole entry, canonical isoform): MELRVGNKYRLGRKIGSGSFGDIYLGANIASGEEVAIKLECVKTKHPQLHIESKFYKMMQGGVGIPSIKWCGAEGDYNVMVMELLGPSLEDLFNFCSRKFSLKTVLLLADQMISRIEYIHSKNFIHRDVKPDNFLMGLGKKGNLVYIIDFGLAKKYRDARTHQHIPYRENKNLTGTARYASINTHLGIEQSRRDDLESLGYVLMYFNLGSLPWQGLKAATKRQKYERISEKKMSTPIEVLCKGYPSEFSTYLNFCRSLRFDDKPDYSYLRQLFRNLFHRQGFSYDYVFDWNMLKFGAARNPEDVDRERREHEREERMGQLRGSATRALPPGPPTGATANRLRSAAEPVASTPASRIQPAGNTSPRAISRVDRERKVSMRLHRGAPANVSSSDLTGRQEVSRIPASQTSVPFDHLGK

With `Fc1ccc(-c2nc3ccc(N4CCC(N5CCCC5)CC4)nn3c2-c2ccncc2)cc1`, the IC50 in series [1] is 1 nM. Further, the metabolised was determined as 20% in series [2] and 16% on CYP3A4.
The like results for `CC1(C)CN(c2ccc3nc(-c4cc(F)cc(F)c4)c(-c4ccncc4)n3n2)CCN1` were, in that order, 43 nM, 25% and 15%.
Regarding `c1ccc(-c2nc3ccc(N4CCC(N5CCCC5)CC4)nn3c2-c2ccncc2)cc1`, the IC50 in series [1] was 26 nM. The metabolised in series [2] worked out at 38.5%; on CYP3A4 it was 24.5%. The Drug metabolism entry at Cytochrome P450 2D6 [3], on Cytochrome P450 2D6 [4] and on Cytochrome P450 2D6 [5] was “Metabolite_Detected” in each case.
With `c1ccc(-c2nc3ccc(N4CC5CC4CN5)nn3c2-c2ccncc2)cc1` (stereo not drawn), the IC50 in series [1] was determined as 70 nM. Moreover, the metabolised in series [2] is 18%; at CYP3A4, 1%.
The like results for `C[C@H]1CN(c2ccc3nc(-c4ccccc4)c(-c4ccncc4)n3n2)CCN1` were, in that order, 13.7 nM, 56% and 30%.
The like results for `Cc1cc(C)cc(-c2nc3ccc(N4CCNC(C)(C)C4)nn3c2-c2ccncc2)c1` were, in that order, 8.6 nM, 13% and 5%.
On to `C[C@H]1CN(c2ccc3nc(-c4ccc(F)cc4)c(-c4ccncc4)n3n2)CCN1`, for which, in series [1], the IC50 was determined as 14.2 nM. Also, the metabolised in series [2] is 66%; on CYP3A4 it was 46%.
Turning to `CC1(C)CN(c2ccc3nc(-c4ccc(F)cc4)c(-c4ccncc4)n3n2)CCN1`, in series [1], the IC50 worked out at 14.6 nM. In addition, the metabolised in series [2] is 52%; on CYP3A4 it was 27%.
In the same order, the values of `Fc1ccc(-c2nc3ccc(N4CC5CC4CN5)nn3c2-c2ccncc2)cc1` (stereo not drawn) are 15.7 nM, 18% and 0%.
In the same order, the values of `CC1(C)CN(c2ccc3nc(-c4ccccc4)c(-c4ccncc4)n3n2)CCN1` are 4.6 nM, 57% and 15%.

The values are drawn from ChEMBL document CHEMBL4325873, “Decreasing the CYP2D6 contribution to metabolism of a CK1ε inhibitor” (Bioorg Med Chem Lett, 2018).
